Reference: US20080113907A1, “Uses Of Galectin-2” (Charite-Universitat-Smedizin Berlin, priority 2004, published 2008)
Where a SMILES comes first, the peptide text is derived from it. The star is where a group is joined. Cbz = O=C(OCc1ccccc1)*; CH2F = FC*

Key:
[1] = system: dextran sodium sulfate induced colitis; assay: Prevention of DSS induced acute colitis, disease activity index (DAI); assay type: in vivo, Balb/c mice; conditions: 2 mg/kg i.p.; 10 days after induction; control 6.5 ± 0.3
Experimental: Colitis was induced in 8- to 10-week-old, female, Balb/c mice (Jackson Laboratories, Bar Harbor, Me.) by adding 5% DSS (Sigma Chemical Co., St. Louis, Mo.) (Dextran Sodiumsulfate (DSS) to their drinking water and allowing them to drink ad libitum. Groups of mice were treated either with 1 mg/kg BW (body weight) galectin-2 intraperitoneally or PBS 2 h before DSS administration. Mice were weighed and inspected for diarrhea and rectal bleeding. Seven days after induction of colitis by DSS, mice were killed, their entire colon was resected, and its length was measured and weighed. The disease activity index (DAI; i.e., the combined score of weight loss and bleeding) was determined according to a standard scoring system.
The disease activity index: Loss in bodyweight: 0=no loss; 1=5% to 10%; 2=10% to 15%; 3=15% to 20%; 4 ? 20%.
Hemoccult: 0=no blood; 2=positive; 4=gross blood.
In this experiment the DAI ranges from 0 to 8. The higher the DAI score the more severely the animal had been affected by colitis.
Colitis was induced in 8- to 10-week-old, female, Balb/c mice (Jackson Laboratories, Bar Harbor, Me.) by adding 5% DSS (Sigma Chemical Co., St. Louis, Mo.) (Dextran Sodiumsulfate (DSS) to their drinking water and allowing them to drink ad libitum. Groups of respectively 10 mice were treated either with Galectin-2 subcutaneously (s.c.) or intraperitoneally (i.p.) 2 h before DSS administration. In one trial with 10 mice the doses of Galectin-2 was doubled (administered i.p.) and compared to the treatment of 10 mice with Tacrolimus (FK506) (administered i.p.) in equal concentrations. In parallel a group of 10 mice was treated with 0.9% NaCl instead of Galectin-2 as control. Mice were weighed and inspected for diarrhea and rectal bleeding. 10 days after induction of colitis by DSS, mice were killed, their entire colon was resected, and its length was measured and weighed. The disease activity index (DAI; i.e., the combined score of weight loss and bleeding) was determined according to a standard scoring system.
The disease activity index: Loss in body weight: 0=no loss; 1=5% to 10%; 2=10% to 15%; 3=15% to 20%; 4 ? 20%.

PBT [2] = assay: Extent of apoptosis and necrosis (annexin-V, PI, DAPI staining); assay type: cell-based, human; conditions: for effect on galectin-2 induced apoptosis: 50 mM; for effect on galectin-1 induced cell death / effect on galectin-2 induced T cell apoptosis / effect on galectin-7 induced cell death: caspase inhibitor 50 μM
Experimental: Apoptosis was determined by monitoring fragmentation of nuclear DNA and access of annexin V to c ell surface phosphatidylserine (PS). To detect fragmentation of nuclear DNA, T cells were cultured in the presence and absence of the respective galectins, with or without blocking antibodies or further activation for 48 h. Thereafter, cells were fixed in 0.2 ml of 37% formaldehyde for 10 min at room temperature. The cells were then treated with 1 ml PBS containing 0.2% Nonidet P-40 (Sigma-Aldrich) for 2 min at room temperature and then rinsed once in PBS. The apoptotic cells were detected by staining of nuclear DNA with 4,6-diamino-2-phenylindole (DAPI) (Calbiochem). DAPI was added at a concentration of 0.2 ng/ml of PBS and cells were incubated at room temperature for 20 min in this solution. Cells were rinsed twice in PBS and the coverslips were maintained cell side down on a microscope slide and analyzed using a Zeiss Axiovert 135M microscope (Carl Zeiss, Oberkochen, Germany). To detect early phases of apoptosis, access to PS was measured. Cells were cultured as described, harvested at the respective time points, stained with FITC-labeled annexin-V and PI and analyzed by flow cytometry using the CellQuest software program (BD Pharmingen). A minimum of 15,000 cells was monitored in each case.

T cells = assay: Binding of biotinylated Gal-2 to T lymphocytes (flow cytometry); set-up: species or system human; conditions: 50 mM
Experimental: To measure Gal-2 binding to T lymphocytes, aliquots of cell suspensions were kept as controls or stimulated for 1, 6, 12, 24, 48, and 72 h with anti-CD3 mAb or PMA and PHA and incubated in the presence of 5 μg/ml biotin-labeled Gal-2. Cells were then harvested, washed and stained with anti-CD3-FITC mAb and APC-labeled streptavidin (Biosource) followed by flow cytofluorometric analysis. Cells cultured in the absence of biotin-labeled Gal-2 and stained with FITC-labeled mouse IgG (BD Pharmingen) or APC-labeled streptavidin served as isotype controls. Each analysis was performed on at least 20,000 events.

T cells (PBT, LPT) = assay: Adhesion assay to collagen type I and fibronectin; assay type: cell-based, human; conditions: PBT
Experimental: 96 well flat-bottom plates were precoated overnight at 4° C. with 12 μg/well fibronectin (Chemicon) in DPBS, 40 μg/well collagen type I (Sigma-Aldrich) in 0.1 M acetic acid, or 3% BSA (Sigma-Aldrich) in DPBS as a control and then washed three times with DPBS. Freshly isolated T cells were fluorescently-labelled with 5 μM calcein-AM (Molecular Probes, Eugene, Oreg.) for 30 min at 37° C. in 5% CO2 at 5×10^6 cells/ml in RPMI. The cells were then washed three times with RPMI containing 5% FCS. Calcein-labelled T cells were resuspended in RPMI and 5×10^5 T cells/well were added to 96-well plates containing purified ECM components or BSA for the indicated times. Saturating concentrations of integrin-blocking mAbs (predetermined by flow cytometry) were preincubated with T cells for 30 min at 37° C. before adding T cells to the wells for the adhesion assay. Nonadherent cells were removed by a standardized washing technique that was developed to minimize background binding, which includes both an orbital and a rocking motion repeated three times with RPMI. Adhesion was quantified with a multiwell fluorescent spectrophotometer (Tecan, Groedig, Austria). For each experimental group the results were expressed as the mean percentage±SD of bound T cells from triplicate wells.

PBT [3] = assay: Analysis of T cell cycling (DNA content, cyclin B1, cell cycle regulators); assay type: cell-based, human; conditions: anti-CD3 activated PBT; dropped from 8% (galectin-1) and 7% (galectin-7)
Experimental: For immunoblotting cells were washed in PBS, and lysed in cell lysis buffer (1% Triton-X, 0.5% NP-40, 0.1% SDS, 0.5% sodium deoxycholate, 5 mM EDTA, 50 mM and 50 mM protease- and phosphatase-inhibitor cocktail 2, 1 mM PMSF, 100 μg/ml trypsin-chymotrypsin inhibitor, 100 μg/ml chymostatin in PBS). The concentration of proteins in each lysate was measured using the Bio-Rad protein assay (Bio-Rad Laboratories, Hercules, Calif.). Equivalent amounts of protein (10 μg) were fractionated on a 10-20% Tris-glycine gel and electrotransferred to a nitrocellulose membrane (Novex, San Diego, Calif.). Membranes were blocked with 5% milk in 0.1% Tween 20-PBS (Fisher Scientific, Hanover Park, Ill.), followed by incubation for 60 m in at room temperature with the indicated primary antibody. The membranes were washed six times with 0.1% Tween 20-PBS and then incubated for 1 h with the appropriate horseradish peroxidase-conjugated secondary antibody (Santa Cruz Biotechnology), washed, and incubated with the chemiluminescent substrate (Perkin-Elmer, Carlsbad, Calif.) for 5 minutes. The membranes were then exposed to film (Amersham, Arlington Heights, Ill.).
Flow cytometry was performed after staining for DNA content, and cyclin B1, essentially as previously described (21). Briefly, cells were washed twice with PBS, adjusted to 1×10^6 cells/sample and fixed in 90% Methanol at −20° C. After fixation, cells were washed twice with PBS, incubated for 45 min at 4° C. with a cyclin B1-FITC conjugated monoclonal antibody. After the final wash, cells were resupended in PBS and 5 μl of RNase (0.6 μg/ml, 30-60 Kunitz Units, Sigma), incubated at 37° C. for 15 min and the chilled on ice. One hundred and twenty five microliters of PI (200 μg/ml) were added prior to analysis by flow cytometry. Each analysis was performed on at least 25.000 events.

Compound | effect on galectin-1 induced cell death (PBT [2]) | effect on galectin-2 induced T cell apoptosis (PBT [2]) | effect on galectin-7 induced cell death (PBT [2]) | other results
C=CC[C@@H]1/C=C(\C)C[C@H](C)C[C@H](OC)[C@H]2O[C@@](O)(C(=O)C(=O)N3CCCC[C@H]3C(=O)O[C@H](/C(C)=C/[C@@H]3CC[C@@H](O)[C@H](OC)C3)[C@H](C)[C@@H](O)CC1=O)[C@H](C)C[C@@H]2OC [Tacrolimus, reference compound] | – | – | – | DAI (disease activity index) [1]: 2.4 ± 0.5,; apoptosis and necrosis of stimulated and unstimulated T cells (PBT [2]; 0, 50, 100 μg/ml, 24 h, with or without anti-CD3): makes no distinction between stimulated and unstimulated T-cells and mainly induces necrosis
O=P1(N(CCCl)CCCl)NCCCO1 (stereo not drawn) [cyclophosphamide] | – | – | – | effect on galectin-2 induced T cell death (PBT [2]; 0, 10, 1000 nM, data not shown): failed to modulate galectin-2 induced T cell death
OC[C@H]1O[C@@H](O[C@H]2[C@H](O)[C@@H](O)C(O)O[C@@H]2CO)[C@H](O)[C@@H](O)[C@H]1O (stereo partly drawn) [lactose, reference compound] | – | – | – | reduction of Gal-2 binding to T cells (T cells; unstimulated T cells): more than 70%; effect on galectin-2 induced apoptosis (PBT [2]): largely inhibited
OC[C@H]1O[C@@](CO)(O[C@H]2O[C@H](CO)[C@@H](O)[C@H](O)[C@H]2O)[C@@H](O)[C@@H]1O [sucrose, reference compound] | – | – | – | effect on Gal-2 staining intensity of T cells (T cells; not shown): failed to affect the staining intensity; effect on galectin-2 induced apoptosis (PBT [2]): not
COC(=O)CC[C@H](NC(=O)[C@H](CC(=O)OC)NC(=O)OCc1ccccc1)C(=O)N[C@H](C(=O)N[C@@H](CC(=O)OC)C(=O)CF)C(C)C [zDEVD, Z-Asp-Glu-Val-Asp(OMe)-fluoromethylketone] | impair | significantly inhibited | inhibited | –
COC(=O)CC[C@H](NC(=O)[C@H](CC(C)C)NC(=O)OCc1ccccc1)C(=O)N[C@@H](Cc1cnc[nH]1)C(=O)N[C@@H](CC(=O)OC)C(=O)CF [zLEHD, Z-Leu-Glu(Ome)-His-Asp-(Ome)-Ch2F] (Cbz-LE(OMe)HD(OMe)-CH2F) | blocked | significantly inhibited | not | –
COC(=O)C[C@H](NC(=O)[C@H](C)NC(=O)[C@@H](NC(=O)OCc1ccccc1)C(C)C)C(=O)CF [zVAD, Z-Val-Ala-Asp(OMe)-fluoromethylketone] (Cbz-Val-Ala-Asp(OMe)-CH2F) | impair | significantly inhibited | inhibited | –
COC(=O)C[C@H](NC(=O)[C@H](C)NC(=O)[C@@H](NC(=O)[C@H](Cc1ccc(O)cc1)NC(=O)OCc1ccccc1)C(C)C)C(=O)CF [zYVAD, Z-Tyr-Val-Ala-Asp(Ome)-Ch2F] | – | had no effect | blocked | –
Z-Ile-Glu-Thr-Asp(OMe)-fluoromethylketone [zIETD] | blocked | had no effect | inhibited | –
galectin-7: another homodimeric proto-type galectin used for comparison | – | – | – | effect on PBT adhesion to collagen or fibronectin (T cells (PBT, LPT)): failed to significantly alter PBT adhesion to collagen or fibronectin; PBT apoptosis relative to galectin-2 (PBT [2]; stimulated T cells): induced PBT apoptosis comparable to galectin-2; cyclin B1 expression (PBT [3]): 1%
